Test results published in US20240336638A1, “IMIDAZOLE COMPOUND, AND INTERMEDIATE AND APPLICATION THEREOF” (priority 2021, published 2024).
Where two headings read alike, the source gives them in different places.

Assays:
MCAO/R rats = assay: Therapeutic administration (i.v.) in middle cerebral artery occlusion/reperfusion (MCAO/R) rats; assay type: in vivo, rat; conditions: for Bleeding time / Brain water content (%) / Cerebral infarction rate (%) / Clotting time / Neurological function score: once a day for 3 days, mean ± SD, n = 8; for Neurological function score: modified Bederson score
Experimental: Male SD rats weighing 250 to 300 g were taken, and the rats in each group fasted for 12 hours before modeling, while water was not restricted. According to the method of Longa et al.^[1], a rat model of MCAO/R was established by occluding the blood flow of internal carotid artery using the thread embolization method. The rats were anesthetized with 3% chloral hydrate (300 mg/kg, 1 mL/100 g body weight) through intraperitoneal injection and fixed in the supine position on the operating table. A midline incision was made in the neck, and the right common carotid artery was isolated using forceps and threaded for later use. The external and internal carotid arteries were isolated from the bifurcation of the common carotid artery. A single thread was threaded through the internal carotid artery, and two threads were threaded through the external carotid artery. Both distal and proximal ends were ligated, and the middle part of the ligation site was cut using ophthalmic scissors. The proximal main trunk of the external carotid artery was isolated and reserved for later use. The prepared cotton thread was used to half-ligate the common carotid artery (tying a slipknot), and the thread prepared for the internal carotid artery was tightened with hemostatic forceps, temporarily occluding the blood flow of the internal carotid artery. A small incision at the proximal main trunk of the external carotid artery was made using ophthalmic scissors, and then, the fishing line was held with straight forceps, inserted from this incision, and slowly advanced through the isolated proximal main trunk of the external carotid artery towards the intracranial direction of the internal carotid artery. The advancement was stopped at a predetermined position, and then the thread of the internal carotid artery that was tightened with the hemostatic forceps was loosened. […] Another thread was threaded and tightened around the proximal main trunk of the external carotid artery and the fishing line that had already been inserted into the predetermined position. The half-ligated thread on the common carotid artery was then loosened, and the skin was subsequently sutured. After 2 hours of ischemia, a small section of the fishing line was pulled out. […] After rats in the blank control group were anesthetized, only the bifurcation of the internal and external carotid arteries was exposed without the occlusion of the MCA.
Successfully modeled rats (neurological function score of 3 after reperfusion) were taken and divided into 20 groups (8 rats for each) according to the random number table method. The groups were divided into a model control group, three dose groups (high, 12 mg/kg, 2.4 mg/mL; medium, 6 mg/kg, 1.2 mg/mL; low, 3 mg/kg, 0.6 mg/mL) for each of the six test compounds, and a positive drug Ozagrel group (6 mg/kg, 1.2 mg/mL), respectively. Both blank and model control groups were administered equal volumes of mixed solvents, and the rats in each group were administered by tail vein injection (i.v.) 2 hours after reperfusion, once a day for 3 consecutive days, with a volume of 0.5 mL/100 g body weight.
Ten minutes after the last administration, the neurological function of the animals was graded according to the modified Bederson scoring method. The standard is as follows[2]: • 0 point: no neurological symptoms; • 1 point: when the rat is suspended by lifting its tail, the forelimb on the surgical side of the rat was flexed and pressed against the chest wall; • 2 points: on a smooth plane, when the rat is pushed from the surgical side to the opposite side, the resistance is less than when it is moved to the same side; • 3 points: the animal moves around or in circles when moving freely; • 4 points: flaccid paralysis, no spontaneous movement of limbs.
After Bederson scoring, the rats were executed by cervical dislocation, and the whole brain was removed and weighed. After weighing, the whole brain was placed in a −20° C. refrigerator for 20 minutes. […]

[1] = Blood-brain barrier (BBB) study in SD rats after single IV and PO administration, brain; assay type: in vivo; conditions: for Cmax / Tmax / half-life / MRT last / MRT inf: Sprague-Dawley (SD); for MRT last: read-out: MRT(0−t); for MRT inf: read-out: MRT(0−∞); for T1/2 and AUC(0-∞) in the brain tissue: compared to Ozagrel
Experimental: Effect Example 3: Pharmacokinetic and blood-brain barrier (BBB) studies of compounds after single intravenous (IV) and oral (PO) administration in SD rats
(§1) The experimental method of administration by gavage injection in rats: SD rats weighing 180 to 220 g were fasted for 12 hours prior to the experiment, with free access to water. After administration, food and water were withheld for 4 hours. After this 4-hour period, the rats were allowed free access to water, and food was provided after 8 hours. The drugs were administered at a set dose. N=3, blood samples were taken before administration, and 5 minutes, 0.25 hours, 0.5 hours, 0.75 hours, 1 hour, 2 hours, 4 hours, 8 hours, and 24 hours after administration, respectively, and placed into sodium heparin anticoagulant tubes. The tubes were centrifuged for 1 hour at 4° C. and at 8000 rpm for 5 minutes, and the plasma was then separated and stored in centrifuge tubes at −70° C. for analysis.
as §1, with “of intravenous” for “of”, “to” for “by gavage injection in”
The plasma concentration-time data were processed using the Phoenix® WinNonlin® 8.0 program to calculate pharmacokinetic parameters.
Among them, Cmax and Tmax are measured values, the elimination rate constant k of the tail section of the C-t curve is obtained from the linear regression of LnC-t, and the value of AUC0-4 is calculated by the trapezoidal area method, and the area under the curve from 0 to ∞ time is AUC=AUC0-4+Ct/k.

[2] = medium dose 6 mg/kg i.v. (Ozagrel group 6 mg/kg)

SMILES	Bleeding time (MCAO/R rats; high dose 12 mg/kg i.v.) [s]	Brain water content (%) (MCAO/R rats; high dose 12 mg/kg i.v.)	Cerebral infarction rate (%) (MCAO/R rats; high dose 12 mg/kg i.v.)	Clotting time (MCAO/R rats; high dose 12 mg/kg i.v.) [s]	Neurological function score (MCAO/R rats; high dose 12 mg/kg i.v.)	Bleeding time (MCAO/R rats; low dose 3 mg/kg i.v.) [s]	Brain water content (%) (MCAO/R rats; low dose 3 mg/kg i.v.)	Cerebral infarction rate (%) (MCAO/R rats; low dose 3 mg/kg i.v.)	Clotting time (MCAO/R rats; low dose 3 mg/kg i.v.) [s]	Neurological function score (MCAO/R rats; low dose 3 mg/kg i.v.)	Bleeding time (MCAO/R rats; [2]) [s]	Brain water content (%) (MCAO/R rats; [2])	Cerebral infarction rate (%) (MCAO/R rats; [2])	Clotting time (MCAO/R rats; [2]) [s]	Neurological function score (MCAO/R rats; [2])	Cmax ([1]; rat brain, IV 1 mg/kg) [ng/g]	Tmax ([1]; rat brain, IV 1 mg/kg) [h]	half-life ([1]; rat brain, IV 1 mg/kg) [h]	MRT last ([1]; rat brain, IV 1 mg/kg) [h]	MRT inf ([1]; rat brain, IV 1 mg/kg) [h]	other results
O=C(O)[C@@H]1C[C@H]1c1ccc(Cn2cnc(Cl)c2)c(Cl)c1 [Compound 11, (1R,2R)-2-(3-Chloro-4-((4-chloro-1H-imidazol-1-yl)methyl)phenyl)cyclopropane-1-carboxylic acid]	319.25 ± 49.38	80.58 ± 0.77	13.53	152.81 ± 29.69	1.25 ± 0.46	307.63 ± 64.59	82.04 ± 1.91	28.07 ± 4.88	138.38 ± 27.34	2.25 ± 0.46	279.75 ± 37.97	80.33 ± 1.65	19.96	136.63 ± 9.80	2.00 ± 0.53	57.5	1	19.5	9.49	27.4	neurological deficits in rats (MCAO/R rats; high dose): can significantly reduce; improving the neurological function scores of the rats (MCAO/R rats; high dose, comparison among test drugs): more advantageous; reducing the infarct area (smallest mean infarct rate) (MCAO/R rats; high doses, comparison among test drugs): more advantageous; cerebral edema in rats (MCAO/R rats; low dose): did not significantly improve; Cmax ([1]; rat brain, PO 6 mg/kg): 385 ng/g; Tmax ([1]; rat brain, PO 6 mg/kg): 4 h; half-life ([1]; rat brain, PO 6 mg/kg): 19.7 h; MRT last ([1]; rat brain, PO 6 mg/kg): 9.94 h; MRT inf ([1]; rat brain, PO 6 mg/kg): 28.5 h; T1/2 and AUC(0-∞) in the brain tissue ([1]; intravenously at 1 mg/kg): significantly increased; T1/2 and AUC(0-∞) in the brain tissue ([1]; orally at 6 mg/kg): significantly increased; AUC(0−t) ([1]; rat brain, IV 1 mg/kg): 855.25 ng·h/g; AUC(0−∞) ([1]; rat brain, IV 1 mg/kg): 1475.23 ng·h/g; AUC(0−t) ([1]; rat brain, PO 6 mg/kg): 7014.55 ng·h/g; AUC(0−∞) (h*ng/g) ([1]; rat brain, PO 6 mg/kg): 12,439.74 h*ng/g
O=C(O)[C@@H]1C[C@H]1c1ccc(Cn2ccnc2)c(F)c1 [Compound 15, (1R,2R)-2-(4-((1H-Imidazol-1-yl)methyl)-3-fluorophenyl)cyclopropane-1-carboxylic acid]	289.63 ± 60.00	80.84 ± 1.40	15.57	163.13 ± 20.06	1.50 ± 0.53	281.38 ± 61.33	81.71 ± 1.64	29.98 ± 5.52	155.38 ± 41.85	2.38 ± 0.74	304.88 ± 43.01	81.19 ± 1.32	21.57	156.50 ± 31.15	1.75 ± 0.71	41.2	0.08	2.2	0.82	3.05	Cmax ([1]; rat brain, PO 6 mg/kg): 199 ng/g; Tmax ([1]; rat brain, PO 6 mg/kg): 1 h; half-life ([1]; rat brain, PO 6 mg/kg): 1.7 h; MRT last ([1]; rat brain, PO 6 mg/kg): 2.56 h; MRT inf ([1]; rat brain, PO 6 mg/kg): 2.91 h; T1/2 and AUC(0-∞) in the brain tissue ([1]; intravenously at 1 mg/kg): significantly increased; T1/2 and AUC(0-∞) in the brain tissue ([1]; orally at 6 mg/kg): significantly increased; AUC(0−t) ([1]; rat brain, IV 1 mg/kg): 33.91 ng·h/g; AUC(0−∞) ([1]; rat brain, IV 1 mg/kg): 69.74 ng·h/g; AUC(0−t) ([1]; rat brain, PO 6 mg/kg): 815.87 ng·h/g; AUC(0−∞) ([1]; rat brain, PO 6 mg/kg): 853.63 ng·h/g
O=C(O)[C@@H]1C[C@H]1c1ccc(Cn2cnc(F)c2)cc1F [Compound 17, (1R,2R)-2-(2-Fluoro-4-((4-fluoro-1H-imidazol-1-yl)methyl)phenyl)cyclopropane-1-carboxylic acid]	338.38	80.34 ± 1.65	17.37	163.00 ± 29.03	1.63 ± 0.74	290.75 ± 79.23	82.47 ± 3.03	30.61 ± 5.72	141.25 ± 28.04	2.25 ± 0.71	307.50 ± 64.66	81.96 ± 2.16	22.75	155.00 ± 29.81	1.88 ± 0.83	84.1	0.08	3.72	2.53	4.7	cerebral edema in rats (MCAO/R rats; low and medium doses): did not significantly improve; Cmax ([1]; rat brain, PO 6 mg/kg): 323 ng/g; Tmax ([1]; rat brain, PO 6 mg/kg): 2 h; half-life ([1]; rat brain, PO 6 mg/kg): 2.82 h; MRT last ([1]; rat brain, PO 6 mg/kg): 4.53 h; MRT inf ([1]; rat brain, PO 6 mg/kg): 4.6 h; T1/2 and AUC(0-∞) in the brain tissue ([1]; intravenously at 1 mg/kg): significantly increased; T1/2 and AUC(0-∞) in the brain tissue ([1]; orally at 6 mg/kg): significantly increased; AUC(0−t) ([1]; rat brain, IV 1 mg/kg): 169.74 ng·h/g; AUC(0−∞) ([1]; rat brain, IV 1 mg/kg): 212.39 ng·h/g; AUC(0−t) ([1]; rat brain, PO 6 mg/kg): 2329.55 ng·h/g; AUC(0−∞) ([1]; rat brain, PO 6 mg/kg): 2336.46 ng·h/g
O=C(O)[C@@H]1C[C@H]1c1ccc(Cn2cnc(F)c2)c(Cl)c1 [Compound 18, (1R,2R)-2-(3-Chloro-4-((4-fluoro-1H-imidazol-1-yl)methyl)phenyl)cyclopropane-1-carboxylic acid]	330.25 ± 50.14	80.54 ± 1.62	17.78	147.25 ± 13.30	1.63 ± 0.52	267.38 ± 50.19	80.64 ± 2.21	26.58 ± 4.57	152.38 ± 28.67	2.25 ± 0.46	271.63 ± 40.55	80.95 ± 1.79	20.75	158.19 ± 19.62	1.88 ± 0.83	75.5	0.08	8.7	7.19	11.5	Cmax ([1]; rat brain, PO 6 mg/kg): 460 ng/g; Tmax ([1]; rat brain, PO 6 mg/kg): 1 h; half-life ([1]; rat brain, PO 6 mg/kg): 8.36 h; MRT last ([1]; rat brain, PO 6 mg/kg): 7.84 h; MRT inf ([1]; rat brain, PO 6 mg/kg): 11.7 h; T1/2 and AUC(0-∞) in the brain tissue ([1]; intravenously at 1 mg/kg): significantly increased; T1/2 and AUC(0-∞) in the brain tissue ([1]; orally at 6 mg/kg): significantly increased; AUC(0−t) ([1]; rat brain, IV 1 mg/kg): 633.23 ng·h/g; AUC(0−∞) ([1]; rat brain, IV 1 mg/kg): 741.29 ng·h/g; AUC(0−t) ([1]; rat brain, PO 6 mg/kg): 6454.78 ng·h/g; AUC(0−∞) ([1]; rat brain, PO 6 mg/kg): 7477.48 ng·h/g
